# Results: PubChem BioAssay (NCI)
#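 Growth conditions: 96-well plates. Treatment: test compound, 48 hours, 5 concentrations. Analysis: linear interpolation between bracketing concentrations; unreached endpoints set to highest concentration. GI50 is the concentration that inhibits growth by half. TGI: concentration producing complete growth inhibition.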
# Assays:
# Test in all cases: NCI tumour cell line growth inhibition, 48 h
# IGROV1 ovarian = system: IGROV1 ovarian
# ACHN renal = system: ACHN renal
# COLO 205 colon = system: COLO 205 colon
# UO-31 renal = system: UO-31 renal
# SN12C renal = system: SN12C renal
# M14 melanoma = system: M14 melanoma
# HS 578T breast = system: HS 578T breast
# MOLT-4 leukemia = system: MOLT-4 leukemia
# HCT-116 colon = system: HCT-116 colon
# NCI/ADR-RES ovarian = system: NCI/ADR-RES ovarian
# K-562 leukemia = system: K-562 leukemia
# NCI-H460 lung = system: NCI-H460 lung
# PC-3 prostate = system: PC-3 prostate
# A549 NSCLC = system: A549 NSCLC
# MCF7 breast = system: MCF7 breast
# A498 renal = system: A498 renal
# NCI-H23 lung = system: NCI-H23 lung
# UACC-257 melanoma = system: UACC-257 melanoma
# SK-MEL-28 melanoma = system: SK-MEL-28 melanoma
# HCC-2998 colon = system: HCC-2998 colon
# HT29 colon = system: HT29 colon
# SF-539 CNS = system: SF-539 CNS
# MDA-MB-231 breast = system: MDA-MB-231 breast
# NCI-H522 lung = system: NCI-H522 lung
# SR leukemia = system: SR leukemia
# U251 CNS = system: U251 CNS
# SF-268 CNS = system: SF-268 CNS
# KM12 colon = system: KM12 colon
# SK-OV-3 ovarian = system: SK-OV-3 ovarian
# HCT-15 colon = system: HCT-15 colon
# HL-60(TB) leukemia = system: HL-60(TB) leukemia
# OVCAR-8 ovarian = system: OVCAR-8 ovarian
# RPMI-8226 leukemia = system: RPMI-8226 leukemia
# TK-10 renal = system: TK-10 renal
# CAKI-1 renal = system: CAKI-1 renal
# RXF 393 renal = system: RXF 393 renal
# EKVX NSCLC = system: EKVX NSCLC
# OVCAR-3 ovarian = system: OVCAR-3 ovarian
# NCI-H226 lung = system: NCI-H226 lung
# SW-620 colon = system: SW-620 colon
# SK-MEL-2 melanoma = system: SK-MEL-2 melanoma
# SNB-75 CNS = system: SNB-75 CNS
# BT-549 breast = system: BT-549 breast
# OVCAR-5 ovarian = system: OVCAR-5 ovarian
# 786-0 renal = system: 786-0 renal
# CCRF-CEM leukemia = system: CCRF-CEM leukemia
# MALME-3M melanoma = system: MALME-3M melanoma
# HOP-62 NSCLC = system: HOP-62 NSCLC
# SK-MEL-5 melanoma = system: SK-MEL-5 melanoma
# SF-295 CNS = system: SF-295 CNS
# MDA-MB-435 = system: MDA-MB-435
# T-47D breast = system: T-47D breast
# SNB-19 CNS = system: SNB-19 CNS
# LOX IMVI melanoma = system: LOX IMVI melanoma
# UACC-62 melanoma = system: UACC-62 melanoma
# DU-145 prostate = system: DU-145 prostate
structure (smiles),measurement,setting,value
CNCc1cccc2c1OCCOCCOCCN(C)S(=O)(=O)c1ccc(cc1)-c1cnc(N)c(n1)C(=O)N2,GI50,IGROV1 ovarian,580 nM
same,TGI,IGROV1 ovarian,12800 nM
same,GI50,ACHN renal,468 nM
same,TGI,ACHN renal,2210 nM
same,GI50,COLO 205 colon,775 nM
same,TGI,COLO 205 colon,3230 nM
same,GI50,UO-31 renal,1210 nM
same,TGI,UO-31 renal,2910 nM
same,GI50,SN12C renal,1480 nM
same,TGI,SN12C renal,3410 nM
same,GI50,M14 melanoma,1110 nM
same,TGI,M14 melanoma,3400 nM
same,GI50,HS 578T breast,663 nM
same,TGI,HS 578T breast,3640 nM
same,GI50,MOLT-4 leukemia,410 nM
same,TGI,MOLT-4 leukemia,11800 nM
same,GI50,HCT-116 colon,1190 nM
same,TGI,HCT-116 colon,3120 nM
same,GI50,NCI/ADR-RES ovarian,14300 nM
same,TGI,NCI/ADR-RES ovarian,32600 nM
same,GI50,K-562 leukemia,622 nM
same,TGI,K-562 leukemia,10300 nM
same,GI50,NCI-H460 lung,868 nM
same,TGI,NCI-H460 lung,2950 nM
same,GI50,PC-3 prostate,1940 nM
same,TGI,PC-3 prostate,8090 nM
same,GI50,A549 NSCLC,1570 nM
same,TGI,A549 NSCLC,13400 nM
same,GI50,MCF7 breast,56.6 nM
same,TGI,MCF7 breast,17900 nM
same,GI50,A498 renal,133 nM
same,TGI,A498 renal,4040 nM
same,GI50,NCI-H23 lung,2470 nM
same,TGI,NCI-H23 lung,27900 nM
same,GI50,UACC-257 melanoma,2690 nM
same,TGI,UACC-257 melanoma,5640 nM
same,GI50,SK-MEL-28 melanoma,1740 nM
same,TGI,SK-MEL-28 melanoma,3560 nM
same,GI50,HCC-2998 colon,15500 nM
same,TGI,HCC-2998 colon,30300 nM
same,GI50,HT29 colon,1080 nM
same,TGI,HT29 colon,4920 nM
same,GI50,SF-539 CNS,534 nM
same,TGI,SF-539 CNS,1980 nM
same,GI50,MDA-MB-231 breast,2280 nM
same,TGI,MDA-MB-231 breast,6440 nM
same,GI50,NCI-H522 lung,1760 nM
same,TGI,NCI-H522 lung,4940 nM
same,GI50,SR leukemia,248 nM
same,TGI,SR leukemia,2970 nM
same,GI50,U251 CNS,1530 nM
same,TGI,U251 CNS,3370 nM
same,GI50,SF-268 CNS,1750 nM
same,TGI,SF-268 CNS,5810 nM
same,GI50,KM12 colon,2290 nM
same,TGI,KM12 colon,14600 nM
same,GI50,SK-OV-3 ovarian,389 nM
same,TGI,SK-OV-3 ovarian,12800 nM
same,GI50,HCT-15 colon,1770 nM
same,TGI,HCT-15 colon,7780 nM
same,GI50,HL-60(TB) leukemia,578 nM
same,TGI,HL-60(TB) leukemia,3140 nM
same,GI50,OVCAR-8 ovarian,1880 nM
same,TGI,OVCAR-8 ovarian,4460 nM
same,GI50,RPMI-8226 leukemia,4390 nM
same,TGI,RPMI-8226 leukemia,31000 nM
same,GI50,TK-10 renal,2060 nM
same,TGI,TK-10 renal,20800 nM
same,GI50,CAKI-1 renal,980 nM
same,TGI,CAKI-1 renal,17900 nM
same,GI50,RXF 393 renal,614 nM
same,TGI,RXF 393 renal,2580 nM
same,GI50,EKVX NSCLC,2830 nM
same,TGI,EKVX NSCLC,12700 nM
same,GI50,OVCAR-3 ovarian,1590 nM
same,TGI,OVCAR-3 ovarian,9790 nM
same,GI50,NCI-H226 lung,2760 nM
same,TGI,NCI-H226 lung,6920 nM
same,GI50,SW-620 colon,1660 nM
same,TGI,SW-620 colon,4250 nM
same,GI50,SK-MEL-2 melanoma,1420 nM
same,TGI,SK-MEL-2 melanoma,4270 nM
same,GI50,SNB-75 CNS,218 nM
same,TGI,SNB-75 CNS,17600 nM
same,GI50,BT-549 breast,3270 nM
same,TGI,BT-549 breast,21600 nM
same,GI50,OVCAR-5 ovarian,3390 nM
same,TGI,OVCAR-5 ovarian,8570 nM
same,GI50,786-0 renal,446 nM
same,TGI,786-0 renal,1990 nM
same,GI50,CCRF-CEM leukemia,549 nM
same,TGI,CCRF-CEM leukemia,3950 nM
same,GI50,MALME-3M melanoma,1530 nM
same,TGI,MALME-3M melanoma,3720 nM
same,GI50,HOP-62 NSCLC,1770 nM
same,TGI,HOP-62 NSCLC,4040 nM
same,GI50,SK-MEL-5 melanoma,1350 nM
same,TGI,SK-MEL-5 melanoma,2910 nM
same,GI50,SF-295 CNS,3350 nM
same,TGI,SF-295 CNS,13300 nM
same,GI50,MDA-MB-435,1280 nM
same,TGI,MDA-MB-435,2690 nM
same,GI50,T-47D breast,2250 nM
same,TGI,T-47D breast,6150 nM
same,GI50,SNB-19 CNS,2720 nM
same,TGI,SNB-19 CNS,8470 nM
same,GI50,LOX IMVI melanoma,1050 nM
same,TGI,LOX IMVI melanoma,3230 nM
same,GI50,UACC-62 melanoma,1300 nM
same,TGI,UACC-62 melanoma,2870 nM
same,GI50,DU-145 prostate,1270 nM
same,TGI,DU-145 prostate,15200 nM
